Like-named read-outs stand apart in the source and are kept apart here.
Assays:
intracellular HBV DNA = test: Real-time PCR for intracellular HBV DNA in HepAD38 cells; assay type: cell-based, hepatitis B virus (HBV); conditions: Hepatitis B virus, HePAD38, 65 h, treated for 65 hours, intracellular HBV DNA by real-time PCR
Experimental: HepAD38 cells were cultured in DMEM medium (Welgene) supplemented with 200 unit/mL penicillin, 200 μg/mL streptomycin, and 10% FBS. During maintenance and passage, the cells were cultured together with 0.4 μg/mL tetracycline. Two days before the treatment with compounds for inducing HBV replication was started, the medium was replaced with a tetracycline-free complete growth medium. […]
HepAD38 cells were treated with a compound for 65 hours and then recovered, and intracellular HBV DNA was extracted therefrom according to the protocol in the DNeasy Blood & Tissue Kit (Qiagen). The primers and probes used to quantify HBV DNA were 5′-[…]-3′, 5′-[…]-3′, and 5′-/56-FAM/TGT CCT GGT/ZEN/[…]/3IABKFQ/-3′. The HBV DNA was amplified by real-time PCR assay using LightCycler 480 (Roche) (J. Virol., 2018, 92(16):e00339-18). All of the processes were confirmed in duplicate.

[1] = molecular target: Protein (capsid assembly) (Hepatitis B virus genotype D subtype ayw, UniProt P03146); test: Protein inhibition (capsid assembly inhibition), Table 1; assay type: biochemical; conditions: for inhibition at 30 µM: read-out: Protein % inhibition rate (@30 μM)
[2] = Cell viability assay (EZ-Cytox) in HepAD38 cells; assay type: cell-based; conditions: human, 65 hours of treatment; for CC50 at 65 h: read-out: Cytotoxicity CC50; for viability at 65 h, 100 µM: read-out: Cytotoxicity % Livability (@100 μM)
Experimental: HepAD38 cells were cultured for 2 days in Dulbecco's Modified Eagle's medium (Welgene, LM001-05) supplemented with 10% FBS without tetracycline. The cells were seeded in 48-well culture plates (1×10^5 cells/well) and treated with each compound at five concentrations (0 μM (0.8% DMSO as a control), 33 μM, 50 μM, 66 μM, and 100 μM). After 65 hours of treatment, viability was measured using EZ-Cytox cell viability assay kit (Daeil Lab Service) according to the manufacturer's instructions. The absorbance was measured at 450 nm using a spectrophotometer (Spark, Tecan). Here, NVR-3-778 (denoted as NVR) was used as a positive control.

[3] = NVR value of the same run in brackets, read-out: Protein EC50

Sequence of Protein (capsid assembly) (P03146 whole entry): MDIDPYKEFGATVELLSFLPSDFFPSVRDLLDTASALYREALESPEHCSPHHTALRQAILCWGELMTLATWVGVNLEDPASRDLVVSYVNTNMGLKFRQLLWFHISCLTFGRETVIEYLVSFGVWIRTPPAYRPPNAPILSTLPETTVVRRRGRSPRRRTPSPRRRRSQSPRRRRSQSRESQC

Compound | IC50 (intracellular HBV DNA) [nM] | EC50 [1] [nM] | inhibition at 30 µM [1] [%] | CC50 at 65 h [2] [nM] | viability at 65 h, 100 µM [2] [%] | EC50 [1, 3] [nM]
Cc1cccc(NC(=O)N(Cc2nnc3n2CCCCC3)c2ccc3c(c2)OCO3)c1 [Example 1, 1-(Benzo[d][1,3]dioxol-5-yl)-1-((6,7,8,9-tetrahydro-5H-[1,2,4]triazolo[4,3-a]azepin-3-yl)methyl)-3-m-tolylurea] | 20 | 1300 | 72 | > 100000 | 95 | –
O=C(Nc1ccc(F)c(Cl)c1)N(Cc1nnc2n1CCCCC2)c1ccc2c(c1)OCO2 [Example 2, 1-(Benzo[d][1,3]dioxol-5-yl)-3-(3-chloro-4-fluorophenyl)-1-((6,7,8,9-tetrahydro-5H-[1,2,4]triazolo[4,3-a]azepin-3-yl)methyl)urea] | 40 | – | 81 | > 100000 | 100 | –
COc1ccc(N(Cc2nnc3n2CCCCC3)C(=O)Nc2ccc(F)c(Cl)c2)cc1 [Example 3, 3-(3-Chloro-4-fluorophenyl)-1-(4-methoxyphenyl)-1-((6,7,8,9-tetrahydro-5H-[1,2,4]triazolo[4,3-a]azepin-3-yl)methyl)urea] | 190 | – | 89 | > 100000 | 91.9 | 1600
O=C(Nc1ccc(F)c(Cl)c1)N(Cc1nnc2n1CCOCC2)c1ccc2c(c1)OCO2 [Example 7, 1-(Benzo[d][1,3]dioxol-5-yl)-3-(3-chloro-4-fluorophenyl)-1-((5,6,8,9-tetrahydro-[1,2,4]triazolo[4,3-d][1,4]oxazepin-3-yl)methyl)urea] | 30 | – | 80 | > 100000 | 96.4 | 1000
N#Cc1cccc(NC(=O)N(Cc2nnc3n2CCCCC3)c2ccc3c(c2)OCO3)c1 [Example 8, 1-(Benzo[d][1,3]dioxol-5-yl)-3-(3-cyanophenyl)-1-((6,7,8,9-tetrahydro-5H-[1,2,4]triazolo[4,3-a]azepin-3-yl)methyl)urea] | 270 | – | 83 | > 100000 | 91.6 | 1800
CC(C)Oc1ccc(N(Cc2nnc3n2CCCCC3)C(=O)Nc2ccc(F)c(Cl)c2)cc1 [Example 12, 3-(3-Chloro-4-fluorophenyl)-1-(4-isopropoxyphenyl)-1-((6,7,8,9-tetrahydro-5H-[1,2,4]triazolo[4,3-a]azepin-3-yl)methyl)urea] | 110 | – | 95 | > 100000 | 93.2 | 2500
O=C(Nc1ccc(F)c(Cl)c1)N(Cc1nnc2n1CCCCC2)c1ccc(C(F)(F)F)cc1 [Example 13, 3-(3-Chloro-4-fluorophenyl)-1-((6,7,8,9-tetrahydro-5H-[1,2,4]triazolo[4,3-a]azepin-3-yl)methyl)-1-(4-(trifluoromethyl)phenyl)urea] | 230 | – | 89 | > 100000 | 106 | 5000
O=C(Nc1ccc(F)c(Cl)c1)N(Cc1nnc2n1CCCCC2)c1ccc2ncsc2c1 [Example 16, 1-(Benzo[d]thiazol-6-yl)-3-(3-chloro-4-fluorophenyl)-1-((6,7,8,9-tetrahydro-5H-[1,2,4]triazolo[4,3-a]azepin-3-yl)methyl)urea] | 124 | – | 80.9 | > 100000 | 93.9 | 2200
O=C(Nc1ccc(F)c(Cl)c1)N(Cc1nnc2n1CCCCC2)c1ccc(F)c(F)c1 [Example 22, 3-(3-Chloro-4-fluorophenyl)-1-(3,4-difluorophenyl)-1-((6,7,8,9-tetrahydro-5H-[1,2,4]triazolo[4,3-a]azepin-3-yl)methyl)urea] | 400 | – | 43 | > 100000 | 92.9 | 2600
COc1ccc(N(C(=O)Nc2ccc(F)c(Cl)c2)C(C)c2nnc3n2CCCCC3)cc1 (stereo not shown) [Example 23, 3-(3-Chloro-4-fluorophenyl)-1-(4-methoxyphenyl)-1-(1-(6,7,8,9-tetrahydro-5H-[1,2,4]triazolo[4,3-a]azepin-3-yl)ethyl)urea] | 320 | – | 47 | > 100000 | 95.1 | 3100
O=C(Nc1ccc(F)c(Cl)c1)N(Cc1nnc2n1CCOCC2)c1ccnc(O)c1 [Example 46, 3-(3-chloro-4-fluorophenyl)-1-(2-hydroxypyridin-4-yl)-1-((5,6,8,9-tetrahydro-[1,2,4]triazolo[4,3-d][1,4]oxazepin-3-yl)methyl)urea] | > 1100 | – | – | > 100000 | 90.5 | –
COc1cc(N(Cc2nnc3n2CCOCC3)C(=O)Nc2ccc(F)c(Cl)c2)ccn1 [Example 47, 3-(3-Chloro-4-fluorophenyl)-1-(2-methoxypyridin-4-yl)-1-((5,6,8,9-tetrahydro-[1,2,4]triazolo[4,3-d][1,4]oxazepin-3-yl)methyl)urea] | 92 | – | – | > 100000 | 81.2 | –
COc1ccc(N(Cc2nnc(C(F)F)n2C)C(=O)Nc2ccc(F)c(Cl)c2)cn1 [Example 48, 3-(3-Chloro-4-fluorophenyl)-1-((5-(difluoromethyl)-4-methyl-4H-1,2,4-triazol-3-yl)methyl)-1-(6-methoxypyridin-3-yl)urea] | > 1100 | – | – | > 100000 | 102 | –
COc1ccc(N(Cc2nnc(C(F)(F)F)n2C)C(=O)Nc2ccc(F)c(Cl)c2)cn1 [Example 49, 3-(3-Chloro-4-fluorophenyl)-1-(6-methoxypyridin-3-yl)-1-((4-methyl-5-(trifluoromethyl)-4H-1,2,4-triazol-3-yl)methyl)urea] | 438 | – | – | > 100000 | 55.9 | –
COc1ccc(N(Cc2nnc(C(F)(F)F)n2CCO)C(=O)Nc2ccc(F)c(Cl)c2)cn1 [Example 50, 3-(3-Chloro-4-fluorophenyl)-1-((4-(2-hydroxyethyl)-5-(trifluoromethyl)-4H-1,2,4-triazol-3-yl)methyl)-1-(6-methoxypyridin-3-yl)urea] | > 1100 | – | – | > 100000 | 101 | –
COCCn1c(CN(C(=O)Nc2ccc(F)c(Cl)c2)c2ccc(OC)nc2)nnc1C(F)F [Example 51, 3-(3-Chloro-4-fluorophenyl)-1-((5-(difluoromethyl)-4-(2-methoxyethyl)-4H-1,2,4-triazol-3-yl)methyl)-1-(6-methoxypyridin-3-yl)urea] | > 1100 | – | – | > 100000 | 84.2 | –
COCCn1c(CN(C(=O)Nc2ccc(F)c(Cl)c2)c2ccc(OC)nc2)nnc1C(F)(F)F [Example 52, 3-(3-Chloro-4-fluorophenyl)-1-((4-(2-methoxyethyl)-5-(trifluoromethyl)-4H-1,2,4-triazol-3-yl)methyl)-1-(6-methoxypyridin-3-yl)urea] | > 1100 | – | – | > 100000 | 55.4 | –
COc1ccc(N(Cc2nnc(C(F)F)n2CCO)C(=O)Nc2ccc(F)c(Cl)c2)cn1 [Example 53, 3-(3-Chloro-4-fluorophenyl)-1-((5-(difluoromethyl)-4-(2-hydroxyethyl)-4H-1,2,4-triazol-3-yl)methyl)-1-(6-methoxypyridin-3-yl)urea] | > 1100 | – | – | > 100000 | 99.1 | –
